# Measurements from patent US20170298402A1, “SELF-LABELING NUCLEIC ACIDS AND METHODS OF USE” (President and Fellows of Harvard College, priority 2014, published 2017).
# Tested on: post-round 6 RNA pool
# Test: Streptavidin gel mobility shift of post-round 6 RNA pool with each electrophilic probe
# Type: biochemical
# Conditions: streptavidin incubation and gel mobility shift
# Experimental: The reaction between small-molecule probe(s) and the RNA pool was performed as follows: the RNA pool (1 μM) in buffer containing 150 mM NaCl, 25 mM Na-HEPES, pH 7.4, was heated at 65° C. for 5 minutes, then allowed to cool for an additional 5 minutes. MgCl2 (10 mM) was then added for a total volume of 45 μL and the solution incubated for 10 minutes, followed by addition of 1.3 mM of the biotinylated small-molecule probe in DMSO. After incubation for the desired time, the RNA was precipitated by the addition of 5 μL of 3 M NaOAc and 180 μL of EtOH.
# The pellet resulting from EtOH precipitation of a reaction of RNA (750 ng) with a small-molecule probe was resuspended in 21 μL H2O. The RNA (7 μL) and streptavidin (NEB; 1 μg) were incubated at room temperature for 25 minutes and then combined with gel electrophoresis loading buffer. The sample was electrophoresed on a 10% PAGE denaturing gel (240 V, 35 minutes) and visualized following incubation with SYBR Green II (Life Technologies).
# To identify the electrophile(s) that reacted with the enriched RNA, we performed one additional round of in vitro selection and then incubated the resulting post-round 6 RNA pool with each of the eight electrophilic probes.
smiles,measurement,value
CC1O[C@H]1CCCOCCOC(=O)CCCCC1SCC2NC(=O)NC21 (stereo partly shown) [probe 1],reaction with the post-round 6 RNA pool,reacted
